Assay results published in PubChem BioAssay (NCI).
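Growth conditions: 96-well plates. Treatment: test compound, 48 hours, 5 concentrations. Analysis: linear interpolation between bracketing concentrations; unreached endpoints set to highest concentration. The concentration for 50% growth inhibition is given as GI50. The concentration for full growth arrest is given as TGI.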

Key:
Experiment in all cases: inhibition of tumour cell growth, NCI panel, 48 h
OVCAR-4 ovarian = test system: OVCAR-4 ovarian
NCI/ADR-RES ovarian = test system: NCI/ADR-RES ovarian
SF-295 CNS = test system: SF-295 CNS
SN12C renal = test system: SN12C renal
K-562 leukemia = test system: K-562 leukemia
MDA-MB-468 breast = test system: MDA-MB-468 breast
MALME-3M melanoma = test system: MALME-3M melanoma
UACC-257 melanoma = test system: UACC-257 melanoma
OVCAR-5 ovarian = test system: OVCAR-5 ovarian
SF-268 CNS = test system: SF-268 CNS
CCRF-CEM leukemia = test system: CCRF-CEM leukemia
SR leukemia = test system: SR leukemia
KM12 colon = test system: KM12 colon
NCI-H460 lung = test system: NCI-H460 lung
A549 NSCLC = test system: A549 NSCLC
MDA-MB-435 = test system: MDA-MB-435
CAKI-1 renal = test system: CAKI-1 renal
SK-OV-3 ovarian = test system: SK-OV-3 ovarian
M14 melanoma = test system: M14 melanoma
RXF 393 renal = test system: RXF 393 renal
OVCAR-3 ovarian = test system: OVCAR-3 ovarian
NCI-H23 lung = test system: NCI-H23 lung
HL-60(TB) leukemia = test system: HL-60(TB) leukemia
SW-620 colon = test system: SW-620 colon
SNB-19 CNS = test system: SNB-19 CNS
HS 578T breast = test system: HS 578T breast
SF-539 CNS = test system: SF-539 CNS
HOP-92 NSCLC = test system: HOP-92 NSCLC
UO-31 renal = test system: UO-31 renal
RPMI-8226 leukemia = test system: RPMI-8226 leukemia
HOP-62 NSCLC = test system: HOP-62 NSCLC
HCC-2998 colon = test system: HCC-2998 colon
U251 CNS = test system: U251 CNS
MDA-MB-231 breast = test system: MDA-MB-231 breast
T-47D breast = test system: T-47D breast
SNB-75 CNS = test system: SNB-75 CNS
ACHN renal = test system: ACHN renal
BT-549 breast = test system: BT-549 breast
OVCAR-8 ovarian = test system: OVCAR-8 ovarian
LOX IMVI melanoma = test system: LOX IMVI melanoma
TK-10 renal = test system: TK-10 renal
DU-145 prostate = test system: DU-145 prostate
HCT-116 colon = test system: HCT-116 colon
NCI-H226 lung = test system: NCI-H226 lung
NCI-H522 lung = test system: NCI-H522 lung
UACC-62 melanoma = test system: UACC-62 melanoma
786-0 renal = test system: 786-0 renal
COLO 205 colon = test system: COLO 205 colon
SK-MEL-5 melanoma = test system: SK-MEL-5 melanoma
HCT-15 colon = test system: HCT-15 colon
SK-MEL-28 melanoma = test system: SK-MEL-28 melanoma
PC-3 prostate = test system: PC-3 prostate
SK-MEL-2 melanoma = test system: SK-MEL-2 melanoma
A498 renal = test system: A498 renal
EKVX NSCLC = test system: EKVX NSCLC
MCF7 breast = test system: MCF7 breast
HT29 colon = test system: HT29 colon
IGROV1 ovarian = test system: IGROV1 ovarian
MOLT-4 leukemia = test system: MOLT-4 leukemia

Compound: Fc1cccc(CNc2nc(SCCN3CCOCC3)nc3c2cnn3CC(Cl)c2ccc(Br)cc2)c1 (stereo not drawn)
- GI50 (OVCAR-4 ovarian): 8.81 µM
- TGI (OVCAR-4 ovarian): > 100 µM
- GI50 (NCI/ADR-RES ovarian): 4.52 µM
- TGI (NCI/ADR-RES ovarian): > 100 µM
- GI50 (SF-295 CNS): 4.16 µM
- TGI (SF-295 CNS): > 100 µM
- GI50 (SN12C renal): 12 µM
- TGI (SN12C renal): > 100 µM
- GI50 (K-562 leukemia): 2.69 µM
- TGI (K-562 leukemia): > 100 µM
- GI50 (MDA-MB-468 breast): 2.62 µM
- TGI (MDA-MB-468 breast): 8.48 µM
- GI50 (MALME-3M melanoma): 3.02 µM
- TGI (MALME-3M melanoma): 24.9 µM
- GI50 (UACC-257 melanoma): 13.9 µM
- TGI (UACC-257 melanoma): > 100 µM
- GI50 (OVCAR-5 ovarian): 14.1 µM
- TGI (OVCAR-5 ovarian): > 100 µM
- GI50 (SF-268 CNS): 10 µM
- TGI (SF-268 CNS): > 100 µM
- GI50 (CCRF-CEM leukemia): 5.41 µM
- TGI (CCRF-CEM leukemia): > 100 µM
- GI50 (SR leukemia): 2.5 µM
- TGI (SR leukemia): > 100 µM
- GI50 (KM12 colon): 4.81 µM
- TGI (KM12 colon): > 100 µM
- GI50 (NCI-H460 lung): 5.04 µM
- TGI (NCI-H460 lung): > 100 µM
- GI50 (A549 NSCLC): 4.88 µM
- TGI (A549 NSCLC): > 100 µM
- GI50 (MDA-MB-435): 11.5 µM
- TGI (MDA-MB-435): > 100 µM
- GI50 (CAKI-1 renal): 5.07 µM
- TGI (CAKI-1 renal): > 100 µM
- GI50 (SK-OV-3 ovarian): > 100 µM
- TGI (SK-OV-3 ovarian): > 100 µM
- GI50 (M14 melanoma): 7.96 µM
- TGI (M14 melanoma): > 100 µM
- GI50 (RXF 393 renal): 2.44 µM
- TGI (RXF 393 renal): 21.3 µM
- GI50 (OVCAR-3 ovarian): 53.1 µM
- TGI (OVCAR-3 ovarian): > 100 µM
- GI50 (NCI-H23 lung): 17 µM
- TGI (NCI-H23 lung): > 100 µM
- GI50 (HL-60(TB) leukemia): 3.85 µM
- TGI (HL-60(TB) leukemia): 50.4 µM
- GI50 (SW-620 colon): 2.89 µM
- TGI (SW-620 colon): 10.4 µM
- GI50 (SNB-19 CNS): 16.2 µM
- TGI (SNB-19 CNS): > 100 µM
- GI50 (HS 578T breast): 8.83 µM
- TGI (HS 578T breast): > 100 µM
- GI50 (SF-539 CNS): 4.58 µM
- TGI (SF-539 CNS): > 100 µM
- GI50 (HOP-92 NSCLC): 13.4 µM
- TGI (HOP-92 NSCLC): > 100 µM
- GI50 (UO-31 renal): 5.11 µM
- TGI (UO-31 renal): > 100 µM
- GI50 (RPMI-8226 leukemia): 4.33 µM
- TGI (RPMI-8226 leukemia): > 100 µM
- GI50 (HOP-62 NSCLC): 25.8 µM
- TGI (HOP-62 NSCLC): > 100 µM
- GI50 (HCC-2998 colon): 3.46 µM
- TGI (HCC-2998 colon): > 100 µM
- GI50 (U251 CNS): 6.12 µM
- TGI (U251 CNS): > 100 µM
- GI50 (MDA-MB-231 breast): 4.25 µM
- TGI (MDA-MB-231 breast): 52.6 µM
- GI50 (T-47D breast): 3.28 µM
- TGI (T-47D breast): > 100 µM
- GI50 (SNB-75 CNS): 6.5 µM
- TGI (SNB-75 CNS): > 100 µM
- GI50 (ACHN renal): 5.83 µM
- TGI (ACHN renal): > 100 µM
- GI50 (BT-549 breast): 21.2 µM
- TGI (BT-549 breast): 57.4 µM
- GI50 (OVCAR-8 ovarian): 10.7 µM
- TGI (OVCAR-8 ovarian): > 100 µM
- GI50 (LOX IMVI melanoma): 2.9 µM
- TGI (LOX IMVI melanoma): 11.6 µM
- GI50 (TK-10 renal): 43.8 µM
- TGI (TK-10 renal): > 100 µM
- GI50 (DU-145 prostate): 39 µM
- TGI (DU-145 prostate): > 100 µM
- GI50 (HCT-116 colon): 4.82 µM
- TGI (HCT-116 colon): > 100 µM
- GI50 (NCI-H226 lung): 13.2 µM
- TGI (NCI-H226 lung): 98.4 µM
- GI50 (NCI-H522 lung): 8.22 µM
- TGI (NCI-H522 lung): > 100 µM
- GI50 (UACC-62 melanoma): 8.76 µM
- TGI (UACC-62 melanoma): 23.8 µM
- GI50 (786-0 renal): 5.7 µM
- TGI (786-0 renal): > 100 µM
- GI50 (COLO 205 colon): 4.31 µM
- TGI (COLO 205 colon): 20.5 µM
- GI50 (SK-MEL-5 melanoma): 7.54 µM
- TGI (SK-MEL-5 melanoma): 20.3 µM
- GI50 (HCT-15 colon): 1.94 µM
- TGI (HCT-15 colon): 4.5 µM
- GI50 (SK-MEL-28 melanoma): 8.51 µM
- TGI (SK-MEL-28 melanoma): > 100 µM
- GI50 (PC-3 prostate): 6.58 µM
- TGI (PC-3 prostate): > 100 µM
- GI50 (SK-MEL-2 melanoma): 11.9 µM
- TGI (SK-MEL-2 melanoma): 37.5 µM
- GI50 (A498 renal): 30.4 µM
- TGI (A498 renal): > 100 µM
- GI50 (EKVX NSCLC): 8.05 µM
- TGI (EKVX NSCLC): > 100 µM
- GI50 (MCF7 breast): 4.61 µM
- TGI (MCF7 breast): > 100 µM
- GI50 (HT29 colon): 1.86 µM
- TGI (HT29 colon): 3.82 µM
- GI50 (IGROV1 ovarian): 34.4 µM
- TGI (IGROV1 ovarian): > 100 µM
- GI50 (MOLT-4 leukemia): 2.58 µM
- TGI (MOLT-4 leukemia): 15.7 µM
